Laboratory results reported in patent US20210254056A1, “IDENTIFICATION AND TARGETED MODULATION OF GENE SIGNALING NETWORKS” (CAMP4 THERAPEUTICS CORPORATION, priority 2017, published 2021).

Tested on: hepatocytes
Assay: RNA-seq of hepatocytes treated with Phase III failure compounds
Details: hepatocytes
Description: RNA-seq was performed to determine the effects of the compounds on hepatocytes.
Significance was determined by the criteria of FPKM≥0.5, a log 2(fold-change)≥1, and a […].

SMILES: CCC(CC)[C@H](NC(C)=O)[C@@H]1[C@H](O)[C@@H](C(=O)O)C[C@H]1NC(=N)N.O.O.O [peramivir (trihydrate), peramivir]
- RNA-seq results: BCKDK expression (gene BCKDK): −0.14
- RNA-seq results: BCO1 expression (gene BCO1): −0.07
- RNA-seq results: BCR expression (gene BCR): −0.02
- RNA-seq results: BLNK expression (gene BLNK): −0.02
- RNA-seq results: BLOC1S3 expression (gene BLOC1S3): 0.01
- RNA-seq results: BMPR1A expression (gene BMPR1A): −0.14
- RNA-seq results: BRAF expression (gene BRAF): −0.13
- RNA-seq results: BSCL2 expression (gene BSCL2): −1.57
- RNA-seq results: BTD expression (gene BTD): −0.14
- RNA-seq results: C4A expression (gene C4A): 0.79
- RNA-seq results: C9 expression (gene C9): −0.57
- RNA-seq results: C10orf10 expression (gene C10orf10): 0.08
- RNA-seq results: C10orf11 expression (gene C10orf11): −0.18
- RNA-seq results: C15orf41 expression (gene C15orf41): −0.25
- RNA-seq results: CA2 expression (gene CA2): −0.12
- RNA-seq results: CA5A expression (gene CA5A): 0.03
- RNA-seq results: CA12 expression (gene CA12): −0.29
- RNA-seq results: CAV1 expression (gene CAV1): −0.36
- RNA-seq results: CCND1 expression (gene CCND1): −0.01
- RNA-seq results: CD46 expression (gene CD46): −0.29
- RNA-seq results: CD81 expression (gene CD81): −0.08
- RNA-seq results: CD320 expression (gene CD320): −0.01
- RNA-seq results: CDAN1 expression (gene CDAN1): 0.23
- RNA-seq results: CDH1 expression (gene CDH1): 0.05
- RNA-seq results: CEP19 expression (gene CEP19): −0.09
- RNA-seq results: CEP83 expression (gene CEP83): −0.20
- RNA-seq results: CEP164 expression (gene CEP164): 0.39
- RNA-seq results: CEP290 expression (gene CEP290): −0.30
- RNA-seq results: CFB expression (gene CFB): −0.13
- RNA-seq results: CFHR2 expression (gene CFHR2): −0.38
- RNA-seq results: CHRM3 expression (gene CHRM3): −0.12
- RNA-seq results: CIDEC expression (gene CIDEC): −0.45
- RNA-seq results, CLDN1 expression (gene CLDN1): −0.36
- RNA-seq results, COG1 expression (gene COG1): −0.10
- RNA-seq results, COG5 expression (gene COG5): −0.36
- RNA-seq results: COG5 expression (gene COG5): −0.22
- RNA-seq results, COG6 expression (gene COG6): −0.54
- RNA-seq results: COG6 expression (gene COG6): −0.08
- RNA-seq results, COL1A1 expression (gene COL1A1): 0.33
- RNA-seq results: COL1A1 expression (gene COL1A1): 0.09
- RNA-seq results, COX6A1 expression (gene COX6A1): 0.39
- RNA-seq results: COX6A1 expression (gene COX6A1): −0.01
- RNA-seq results, CP expression (gene CP): −0.09
- RNA-seq results: CP expression (gene CP): −0.27
- RNA-seq results, CPS1 expression (gene CPS1): 0.01
- RNA-seq results: CPS1 expression (gene CPS1): −0.63
- RNA-seq results, CPT1A expression (gene CPT1A): −0.10
- RNA-seq results: CPT1A expression (gene CPT1A): 0.13
- RNA-seq results, CPT2 expression (gene CPT2): −0.19
- RNA-seq results: CPT2 expression (gene CPT2): 0.05
- RNA-seq results, CROT expression (gene CROT): −0.25
- RNA-seq results: CROT expression (gene CROT): −0.4
- RNA-seq results, CSPP1 expression (gene CSPP1): −0.06
- RNA-seq results: CSPP1 expression (gene CSPP1): −0.05
- RNA-seq results, CTC1 expression (gene CTC1): 0.10
- RNA-seq results: CTC1 expression (gene CTC1): 0.2
- RNA-seq results, CTDSP2 expression (gene CTDSP2): 0.00
- RNA-seq results: CTDSP2 expression (gene CTDSP2): −0.07
- RNA-seq results, CTH expression (gene CTH): 0.06
- RNA-seq results: CTH expression (gene CTH): 0.6
- RNA-seq results, CTNS expression (gene CTNS): −0.25
- RNA-seq results: CTNS expression (gene CTNS): 0.65
- RNA-seq results, CTSF expression (gene CTSF): 0.21
- RNA-seq results: CTSF expression (gene CTSF): 0.3
- RNA-seq results, CTSK expression (gene CTSK): 0.28
- RNA-seq results: CTSK expression (gene CTSK): 0.04
- RNA-seq results, CYB5A expression (gene CYB5A): 0.01
- RNA-seq results: CYB5A expression (gene CYB5A): 0.34
- RNA-seq results, CYB5R3 expression (gene CYB5R3): 0.00
- RNA-seq results: CYB5R3 expression (gene CYB5R3): 0.13
- RNA-seq results, CYP2B6 expression (gene CYP2B6): 0.07
- RNA-seq results: CYP2B6 expression (gene CYP2B6): 0.12
- RNA-seq results, CYP2C19 expression (gene CYP2C19): 0.25
- RNA-seq results: CYP2C19 expression (gene CYP2C19): −0.31
- RNA-seq results, CYP2D6 expression (gene CYP2D6): 0.24
- RNA-seq results: CYP2D6 expression (gene CYP2D6): 0.22
- RNA-seq results, CYP3A4 expression (gene CYP3A4): −0.53
- RNA-seq results: CYP3A4 expression (gene CYP3A4): 0.77
- RNA-seq results, CYP7B1 expression (gene CYP7B1): −0.16
- RNA-seq results: CYP7B1 expression (gene CYP7B1): −0.34
- RNA-seq results, CYP27A1 expression (gene CYP27A1): −0.21
- RNA-seq results: CYP27A1 expression (gene CYP27A1): 0.28
- RNA-seq results, CYP39A1 expression (gene CYP39A1): −0.20
- RNA-seq results: CYP39A1 expression (gene CYP39A1): −0.11
- RNA-seq results, DAO expression (gene DAO): 0.00
- RNA-seq results: DAO expression (gene DAO): 0.13
- RNA-seq results, DBT expression (gene DBT): −0.24
- RNA-seq results: DBT expression (gene DBT): −0.32
- RNA-seq results, DCDC2 expression (gene DCDC2): −0.04
- RNA-seq results: DCDC2 expression (gene DCDC2): −0.6
- RNA-seq results, DCXR expression (gene DCXR): −0.20
- RNA-seq results: DCXR expression (gene DCXR): 0.16
- RNA-seq results, DDC expression (gene DDC): −0.41
- RNA-seq results: DDC expression (gene DDC): −0.25
- RNA-seq results, DDO expression (gene DDO): 0.12
- RNA-seq results: DDO expression (gene DDO): 0.12
- RNA-seq results, DENR expression (gene DENR): −0.36
- RNA-seq results: DENR expression (gene DENR): −0.13
- RNA-seq results, DHCR7 expression (gene DHCR7): 0.04
- RNA-seq results: DHCR7 expression (gene DHCR7): 0.32
- RNA-seq results, DHCR24 expression (gene DHCR24): −0.16
- RNA-seq results: DHCR24 expression (gene DHCR24): −0.14
- RNA-seq results, DHODH expression (gene DHODH): 0.27
- RNA-seq results: DHODH expression (gene DHODH): 0.22
- RNA-seq results, DIS3L2 expression (gene DIS3L2): −0.14
- RNA-seq results: DIS3L2 expression (gene DIS3L2): −0.14
- RNA-seq results, DKC1 expression (gene DKC1): −0.11
- RNA-seq results: DKC1 expression (gene DKC1): −0.05
- RNA-seq results, DLAT expression (gene DLAT): −0.15
- RNA-seq results: DLAT expression (gene DLAT): −0.21
- RNA-seq results, DLD expression (gene DLD): −0.35
- RNA-seq results: DLD expression (gene DLD): −0.3
- RNA-seq results, DMGDH expression (gene DMGDH): −0.11
- RNA-seq results: DMGDH expression (gene DMGDH): −0.15
- RNA-seq results, DNAH5 expression (gene DNAH5): −0.05
- RNA-seq results: DNAH5 expression (gene DNAH5): −0.1
- RNA-seq results, DNM1L expression (gene DNM1L): −0.28
- RNA-seq results: DNM1L expression (gene DNM1L): −0.12
- RNA-seq results, DOLK expression (gene DOLK): 0.09
